According to article PMC12073248, “Tyrosinase Inhibitors Among Flora of Lubelskie Region—Application of Bio-Chromatographic Approach and Zebrafish Model in Bioactivity Screening of Plant Material” (Molecules, 2025):

How the values were obtained:
mushroom tyrosinase [1] = molecular target: T1, mushroom tyrosinase (Agaricus bisporus, UniProt C7FF04); assay: Bio-chromatographic assay: HPLC-ESI-QTOF-MS/MS of extract with and without tyrosinase; type: binding; settings: for Inhibitory properties in the bio-chromatographic assay: aglycons in M. recutita extract, minute content, matrix effect; for Peak in subtracted chromatogram (extract with enzyme minus extract): negative ion mode, negative peak = decrease in intensity on reaction with the enzyme; for Peak height after reaction with tyrosinase: mass chromatograms with and without enzyme
Protocol: For the identification of single components responsible for interactions with tyrosinase enzymes, a bio-chromatographic assay was performed. For this purpose, two 0.5 mL portions of 1 mg/mL 50% EtOH extract of chamomile dissolved in water each were transferred to an Eppendorf vial of 2 mL. The sample coded as sample A was mixed with 0.5 mL of carbonate buffer prepared by dissolving 120 mg Na2CO3 and 12.5 mg NaHCO3 in 1000 mL of water and later diluted 40 times, whereas sample B was mixed with 0.5 mL of tyrosinase enzyme (500 U/mL) in the same carbonate buffer and diluted 40 times as sample A was.
Both samples A and B were filtered through nylon syringe filters (0.1 µm pore size) into autosampler vials and analyzed using an HPLC-ESI-QTOF-MS/MS instrument. The test was performed in triplicate. During the analysis of recorded data, the obtained chromatograms were subtracted from each other in the Mass Hunter Workstation Program to highlight the changes visible under the influence of the enzyme, and some of the potentially active components were tentatively identified thanks to high-resolution mass measurement, recorded MS/MS fragmentation patterns, and comparison with open mass databases (Metlin, HMDB, Mass Bank). Both injections—with and without the enzyme—were also compared using the Mass Profiler Professional Program (Agilent Technologies, Santa Clara, CA, USA). For this purpose, molecular feature extraction was carried out using the Profinder program v. 10.0.02 (Agilent Technologies, Santa Clara, CA, USA) to obtain a list of m/z values, retention times, and peak areas from the recorded injections, which were exported in profinder archive and detailed CSV formats for subsequent chemometric comparison. The data were filtered based on criteria including a mass tolerance of 10 ppm, retention time variation of 0.3 min, and a minimum peak area of 1% of the highest signal. The chemometric analysis performed directly within the program yielded 802 entities in positive ion mode and 715 in negative ion mode (p < 0.05), in a one-way ANOVA test with asymptotic p-value computation and Benjamini–Hochberg multiple testing correction.

mushroom tyrosinase [2] = molecular target: T1, mushroom tyrosinase; assay: as above; type: binding; settings: chemometric comparison, p < 0.001
mushroom tyrosinase [3] = molecular target: T1, mushroom tyrosinase; assay: Spectrophotometric tyrosinase inhibition assay with L-DOPA as substrate; type: biochemical; settings: standards 0.015 to 5.0 mg/mL
Protocol: The inhibitory properties of the extracts against tyrosinase were evaluated using in an in vitro assay with the mushroom tyrosinase enzyme and L-DOPA as a substrate (Sigma Aldrich, St. Louis, MO, USA). The assay was performed based on the method by Uchida and colleagues [43]. Briefly, 100 µL of 100 mM phosphate buffer (pH 6.8) and 20 µL of the diluted extracts of studied plants (1 mg/mL solution in DMSO) were pipetted into a 96 well microwell. Afterwards, 20 μL of the mushroom tyrosinase (500 U/mL) dissolved in phosphate buffer (pH 6.8) was added to each microwell and the mixture was pre-incubated for 10 min at room temperature. After incubation, 80 µL of 8 mM L-DOPA was added and the reaction was initiated and sustained at 25 °C. After 20 min, the absorbance was measured at 450 nm using a microplate reader Promega GloMax Explorer GM 3510 (Madison, MO, USA). The control sample (with 100% tyrosinase activity) contained the appropriate volume of the solvent (100 µL buffer plus 20 µL DMSO) instead of the extract. In both assays, the dopachrome formation was measured spectrophotometrically at λ = 450 nm, using a Promega microplate reader. The obtained values were corrected by the absorbance value of the background that was measured for the extracts without the mushroom tyrosinase and L-DOPA. Each sample was analyzed in three independent repetitions. […]

T1 sequence (C7FF04 1-392): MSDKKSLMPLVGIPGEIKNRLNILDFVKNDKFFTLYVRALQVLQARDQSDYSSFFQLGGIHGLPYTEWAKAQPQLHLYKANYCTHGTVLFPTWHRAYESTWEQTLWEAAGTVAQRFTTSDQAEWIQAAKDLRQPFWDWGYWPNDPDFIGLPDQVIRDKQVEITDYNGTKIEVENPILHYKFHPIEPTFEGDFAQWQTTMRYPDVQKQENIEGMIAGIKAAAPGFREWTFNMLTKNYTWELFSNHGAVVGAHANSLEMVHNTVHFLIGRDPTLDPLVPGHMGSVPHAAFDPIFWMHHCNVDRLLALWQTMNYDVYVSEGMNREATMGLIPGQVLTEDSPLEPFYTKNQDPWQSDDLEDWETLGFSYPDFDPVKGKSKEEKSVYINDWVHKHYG

Row | Compound | Presence among m/z features differentiating extract before and after tyrosinase treatment (mushroom tyrosinase [2]) | Peak in subtracted chromatogram (extract with enzyme minus extract) (mushroom tyrosinase [1]) | further results
1 | O=c1cc(-c2ccc(O)cc2)oc2cc(O)cc(O)c12 [apigenin, Apigenin] | – | – | Inhibitory properties in the bio-chromatographic assay (mushroom tyrosinase [1]): did not show inhibitory properties
2 | O=C(O)CC(OC(=O)/C=C/c1ccc(O)c(O)c1)C(=O)O (centres unmarked) [caffeoylmalic acid, Caffeoylmalic acid] | present on the list of the differentiating molecular features | – | –
3 | O=C(O)CC(O)(CC(=O)O)C(=O)O [citric acid, Citric acid] | – | Large negative peaks | –
4 | O=C(/C=C/c1ccc(O)cc1)O[C@@H](C(=O)O)[C@@H](O)C(=O)O [coumaroyl-tartaric acid, p-Coumaroyltartaric acid] | present on the list of the differentiating molecular features | – | –
5 | COc1cc(/C=C/C(=O)O)ccc1O [ferulic acid, Ferulic acid] | – | – | IC50 (mushroom tyrosinase [3]): 484 nM
6 | O=C(O)[C@H](O)[C@@H](O)[C@H](O)[C@H](O)CO [gluconic acid, Gluconic acid] | – | Large negative peaks | –
7 | O=c1c(O[C@@H]2OC[C@H](O)[C@H](O)[C@H]2O)c(-c2ccc(O)cc2)oc2cc(O)cc(O)c12 [kaempferol arabinoside, Kaempferol-3-O-alpha-L-arabinoside] | – | – | Peak height after reaction with tyrosinase (mushroom tyrosinase [1]): marked decrease in the peak height
8 | O=C(O)CC(=O)OC[C@H]1O[C@@H](Oc2c(-c3ccc(O)cc3)oc3cc(O)cc(O)c3c2=O)[C@H](O)[C@@H](O)[C@@H]1O [kaempferol malonylglucoside, Kaempferol 3-(6″-malonylglucoside)] | – | – | Peak height after reaction with tyrosinase (mushroom tyrosinase [1]): marked decrease in the peak height
9 | O=c1cc(-c2ccc(O)c(O)c2)oc2cc(O)cc(O)c12 [luteolin, Luteolin] | – | – | Inhibitory properties in the bio-chromatographic assay (mushroom tyrosinase [1]): did not show inhibitory properties
10 | O=C(O)CC(O)C(=O)O (centres unmarked) [malic acid, Malic acid] | – | Large negative peaks | –
11 | O=C(O)[C@]1(O)C[C@@H](O)[C@@H](O)[C@H](O)C1 [quinic acid, Quinic acid] | present on the list of the differentiating molecular features | – | –
12 | COc1cc(/C=C/C(=O)O)cc(OC)c1O [sinapic acid, Sinapic acid] | present on the list of the differentiating molecular features | – | –
13 | Feruloyl hexose | – | Large negative peaks | –
14 | Feruloyl-glucose isomers | – | leading negative peak | –
15 | Isopropylmalic acid | present on the list of the differentiating molecular features | – | –
16 | Protocatechuoylglucose [protocatechuoyl-glucose] | – | visible negative peak | –
17 | Syringetin glucoside | visible in the list of differentiating signals | – | –
